Test [1] concerns 5xFAD transgenic mice. Description: Autophagy indicators in brain (LC3/GFAP and LC3/MAP2 staining, LC3 immunoblot). The class given is in vivo. On the procedure: 5xFAD animals were administered with HN-1703 at three doses for 14 days to male heterozygotes aged 6 months (all born within 3 days). The behaviors of mice were measured in a dark cycle in which the mice were active while alternating light and dark in a 12-hour cycle in a breeding room chamber, and the mice were freely accessible to food and water and bred in compliance with experimental animal ethical guidelines of Kyung Hee University. In each group, the HN-1703 was intraperitoneally injected at the same time once a day in a volume of 100 μl to 12 mice in a normal group (wild type littermate), 9 5xFAD mice in a vehicle (DMSO administration), 8 5xFAD mice in a 5 mg/kg administered group, 9 5xFAD mice in a 10 mg/kg administered group, and 9 5xFAD mice in a 20 mg/kg administered group. […] In a behavioral measurement room, humidity (40 to 60%) and temperature (22 to 26° C.) were maintained, and reflected light was maintained to avoid sound and light effects. Behavioral measures were measured in Y-maze, Morris Water Maze, and Passive Avoidance test for 18 days in sequence.
A brain slice immunostaining method was modified and used as described in Heo H et al. (J Ethnopharmacol, 2009). Mice were transcardially perfused with 4% PFA. After being immersed and fixed in 4% PFA for 4 hours, the brain tissue was unfrozen in 30% sucrose, frozen in an optimal cutting temperature (OCT) mixture, and stored at −80° C. Brain tissue slices were sectioned in a coronal direction at a thickness of 35 μm. The brain tissue slices were immersed in a storage solution (30% glycerol, 30% ethylene glycol, PBS) and stored at 4° C. The stored brain slices were permeabilized in 0.5% Triton X-100 for 20 minutes and shaken in 2 N HCl for 30 minutes at 37° C. Then, the brain slices were blocked in a free-floating state for 2 hours in 15% standard serum, 3% bovine serum albumin (BSA, bio-WORLD, Dublin, OH, USA) and 0.1% Triton X-100. The slices were shaken with a first antibody for 16 hours at 4° C. Thereafter, a second antibody complementary to the first antibody was attached at room temperature (22±1° C.) for 45 minutes. Then, the nuclei were washed with physiological saline (PBS) containing 1 μg/ml PI (propidiumiodide, Sigma) or DAPI (1:4000), and then placed on a slide glass and sealed using an aqueous mount, and observed under a confocal scanning microscope for tissue observation (LSM 810 Carl Zeiss, Oberkochen, Germany).
The first antibody used antibodies such as LC3-II (MBL, PM036), MAP2 (sigma, m4403) [for LC3/MAP2 double staining], 6E10 (biolegend, 803001) [for LC3/6E10; ICC double staining], GFAP (abcam, ab53554) [for LC3/GFAP double staining], Iba-1 (wako, 011-27991) [for LC3/IBA1 double staining], Iba-1 (Wako, 019-19741) [for ThioS/Iba1/PI triple staining], Sox2 (R&D system, MAB2018) [for SOX2/DCX/NeuN triple staining], DCX (Santa Cruz, sc8066) [for SOX2/DCX/NeuN triple staining], AT8 (Invitrogen, MN1020) [for AT8/MAP2 double staining], MAP2 (abcam, ab32454) [for AT8/MAP2 double staining], NeuN (Millipore, MAB377B), Tuj1 (Sigma, T8660), Nestin (Millipore, MAB353), GFAP (Chemicon), and the like, and the second antibody used Alexa 488, Cy3, Alexa 488 (Invitrogen, A21202), Cy3 (Jackson lab, 715-165-151), and Alexa 488 (Jackson lab, 711-546-152).
When PS1 was KO, lysosome acidification was weakened and autophagy was inhibited (Lee et al. (2010) Cell 141: 1146-1158), and in 5xFAD mice with mutations in PS1, the generation of autophagy was somewhat attenuated and may be activated in the presence of endogenous WT PS1. In other words, there were example in which cellular conditions that inhibit mTOR, such as lack of amino acids, or suppression of inflammation activated autophagy, and treatment with a cAMP or β-adrenergic agonist restored lysosomal acidification in PS1 mutant cells (Coffey et al. (2014) Neuroscience 263: 111-124). […]

Test [2] concerns the target T1, mTORC1 (Homo sapiens, UniProt P42345).
T1 construct: endogenous in cells; host or cells: HeLa
Description: mTORC1 inhibition, immunoblot of S6K Thr389 phosphorylation in HeLa cells. It is filed as cell-based. The conditions noted are these: at 40 µM, FIG. 2A. The protocol:
HeLa cells were cultured in DMEM (Dulbesco's Modified Eagles Media) containing 10% FBS, penicillin (100 units/ml), and streptomycin (100 μg/ml) at 37° C. in a 5% CO2 incubator. Culture was started by seeding 4×10^5 cells in a 100 mm culture dish, and subcultured every 3 days.
Immunoblot analysis was performed by the following method. SDS-PAGE-developed proteins were electroblotted and transferred and a PVDF membrane was blocked by shaking for 1 hour in a TBS-T buffer (20 mM Tris, 137 mM NaCl, 0.1% Tween 20) containing 5% skim milk. The membrane was repeatedly washed with a TBS-T buffer three times for 5 minutes, and reacted with a first antibody diluted in a TBS-T buffer containing 5% skim milk or 5% BSA overnight at 4° C. Thereafter, the membrane was repeatedly washed with a TBS-T buffer three times for 5 minutes, and reacted with a second antibody diluted in a TBS-T buffer containing 5% skim milk for 30 minutes at room temperature. The membrane was repeatedly washed with a TBS-T buffer containing 5% skim milk five times for 5 minutes, and then protein bands bound to the second antibody were detected by a chemiluminescence method. […]

In the case of `COc1cc(OC)c2c(=O)c3cc4c(cc3oc2c1)OCO4` [HN-1703, 7,9-dimethoxy-10H-[1,3]dioxolo[4,5-b]xanthen-10-one], the LC3-II staining entry in test [1] (5 mg/kg to 10 mg/kg, FIG. 12) was “stained at the level of a WT normal group”. Moreover, in test [1] (20 mg/kg, FIG. 12), the “LC3-II increase compared to the 5xFAD-DMSO control group” value was determined as 2.5 times and the “LC3-II increase compared to the WT normal group” value is 1.4 times. Also, the “LC3-II staining in the axon of the hippocampal pyramidal neuron” value in test [1] (20 mg/kg, FIG. 13) is “recovered to the level of the WT normal group”. For the same compound, the “autophagic vacuoles near the nuclei of large neurons in the subgranular cell layer of the hippocampus” value in test [1] (FIG. 14) is “significantly increased”. Further, the “ratio of the autophagy activation marker LC3-II/LC3-I (brain immunoblot)” value in test [1] (FIG. 15) is on record as “increased”. In addition, in test [1] (hippocampal dentate gyrus, compared to a 5xFAD-DMSO control group, FIG. 12), the LC3-II staining result is “increased in a dose-dependent manner”. In addition, the “astrocytes stained with the GFAP antibody” value in test [1] (increased in 5xFAD-DMSO vs WT, FIG. 12) is “decreased to a normal level”. The “inhibition of mTORC1 activity (S6K Thr389 phosphorylation) compared to the control group” value in test [2] was determined as 48%.
